The source of these data is patent publication US10683269B2 (MISSION THERAPEUTICS LIMITED, priority 2016, dated 2020).

pIC50: −log10 of the molar value. Where only a bound is given, the exact number is not on record here.

T1 sequence (Q93009 whole entry): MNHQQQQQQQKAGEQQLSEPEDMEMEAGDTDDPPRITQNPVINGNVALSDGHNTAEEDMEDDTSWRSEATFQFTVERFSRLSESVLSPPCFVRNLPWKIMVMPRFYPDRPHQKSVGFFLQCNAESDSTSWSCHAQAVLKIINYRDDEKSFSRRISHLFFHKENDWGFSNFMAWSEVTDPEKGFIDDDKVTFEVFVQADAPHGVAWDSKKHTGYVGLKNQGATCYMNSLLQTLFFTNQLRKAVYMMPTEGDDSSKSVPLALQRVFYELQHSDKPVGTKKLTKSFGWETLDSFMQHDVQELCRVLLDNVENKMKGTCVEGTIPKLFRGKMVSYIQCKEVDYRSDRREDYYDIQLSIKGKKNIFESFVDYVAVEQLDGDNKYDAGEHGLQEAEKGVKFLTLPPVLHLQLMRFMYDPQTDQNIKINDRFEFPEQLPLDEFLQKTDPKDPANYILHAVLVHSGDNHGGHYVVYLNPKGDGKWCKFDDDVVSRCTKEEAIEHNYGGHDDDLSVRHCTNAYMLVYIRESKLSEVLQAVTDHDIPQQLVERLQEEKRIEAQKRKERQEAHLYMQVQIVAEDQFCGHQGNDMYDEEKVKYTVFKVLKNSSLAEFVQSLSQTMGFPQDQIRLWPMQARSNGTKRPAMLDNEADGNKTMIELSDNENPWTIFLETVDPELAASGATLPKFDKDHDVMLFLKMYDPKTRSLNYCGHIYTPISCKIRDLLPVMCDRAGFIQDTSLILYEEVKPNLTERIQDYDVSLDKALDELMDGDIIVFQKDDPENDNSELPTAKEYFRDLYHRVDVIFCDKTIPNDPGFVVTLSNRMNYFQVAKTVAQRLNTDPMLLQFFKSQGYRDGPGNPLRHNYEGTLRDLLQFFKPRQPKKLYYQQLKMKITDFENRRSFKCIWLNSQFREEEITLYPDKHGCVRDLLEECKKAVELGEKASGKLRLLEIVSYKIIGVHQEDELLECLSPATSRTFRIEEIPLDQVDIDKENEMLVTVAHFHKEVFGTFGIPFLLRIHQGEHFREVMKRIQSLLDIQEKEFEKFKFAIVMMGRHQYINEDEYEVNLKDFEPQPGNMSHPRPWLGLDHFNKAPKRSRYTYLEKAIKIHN

The experiment addresses T1, USP7 (Homo sapiens, UniProt Q93009).
T1 construct: The USP7 construct was PCR amplified and cloned into a pFLAG-CMV-6a vector (Sigma-Aldrich) with an N-terminal FLAG tag; made in house; host or cells: HEK293T
Nature of the experiment: USP7 biochemical IC50 assay (fluorescence polarisation, TAMRA labelled peptide linked to ubiquitin via an iso-peptide bond). The note with it: 30 min pre-incubation of enzyme and compound, read after 2 hr incubation at room temperature, read-out: IC50 range. Here is the method: In Vitro USP7 Inhibition Assay
Expression and Purification of USP7
The USP7 construct was PCR amplified and cloned into a pFLAG-CMV-6a vector (Sigma-Aldrich) with an N-terminal FLAG tag. HEK293T cells were transfected with FLAG-USP7 using TransIT-LT1 transfection reagent (Mirus) according to the manufacturer's instructions. Cells were harvested 40 hours after transfection. […] The resin was washed two times with low salt buffer plus protease inhibitors (complete mini, Roche) and phosphatase inhibitors (PhosSTOP mini, Roche) and one time with high salt buffer (20 mM Tris, pH 7.5, 500 mM NaCl, 0.5 mM EDTA, 5 mM beta-mercaptoethanol, protease inhibitors (complete mini, Roche) and phosphatase inhibitors (PhosSTOP mini, Roche). To elute the bound USP7, elution buffer (10 mM Tris, pH 7.5, 150 mM NaCl, 0.5 mM EDTA, 10% glycerol, 0.5% NP40, 5 mM beta-mercaptoethanol, 0.15 mg/ml 3×FLAG peptide (Sigma-Aldrich)) was added to the resin and incubated at 4° C. for 2.5 hours rotating. The resin was centrifuged at 4000 rpm for 30 seconds, and the supernatant containing purified FLAG-USP7 was removed and stored at −80° C.
USP7 Biochemical IC50 Assay
A typical 8-point dilution series would be 100, 30, 10, 3, 1, 0.3, 0.1, 0.03 μM final. […] Either 1 μl of 50% DMSO or diluted compound was added to the plate. USP7 was diluted in reaction buffer (20 mM Tris, pH 7.5, 100 mM NaCl, 0.05% Tween 20, 0.5 mg/ml BSA, 5 mM—beta mercaptoethanol) to the equivalent of 0.0025 μl/well and 10 μl of diluted USP7 was added to the compound. Enzyme and compound were incubated for 30 min at room temp. Reactions were initiated by the addition of 50 nM of TAMRA labelled peptide linked to ubiquitin via an iso-peptide bond as fluorescence polarisation substrate. Reactions were read immediately after addition of substrate and following a 2 hr incubation at room temperature. Readings were performed on a Pherastar Plus (BMG Labtech). λ Excitation 540 nm; λ Emission 590 nm.
In general terms: Polarisation of emitted light reports the rotation of a fluorescent probe.
In the case of `Cc1nc2ccc(-c3cc(NC(=O)[C@@H]4CCCN(C)C4)cc4c3CN(C#N)C4)cc2o1` [Example 35, (R)-N-(2-cyano-7-(2-methylbenzo[d]oxazol-6-yl)isoindolin-5-yl)-1-methylpiperidine-3-carboxamide], the pIC50 is over 6.00.
In the case of `CN1CCC[C@H](C(=O)Nc2cc3c(c(-c4ccccc4)c2)CN(C#N)C3)C1` [Example 37, (S)—N-(2-cyano-7-phenylisoindolin-5-yl)-1-methylpiperidine-3-carboxamide] it was over 6.00; in that of `CN1CCC[C@@H](C(=O)Nc2cc3c(c(-c4ccccc4)c2)CN(C#N)C3)C1` [Example 38, (R)—N-(2-cyano-7-phenylisoindolin-5-yl)-1-methylpiperidine-3-carboxamide], over 6.00; in that of `Cn1nccc1C(=O)Nc1cc2c(c(-c3ccccc3)c1)CN(C#N)C2` [Example 39, N-(2-cyano-7-phenylisoindolin-5-yl)-1-methyl-1H-pyrazole-5-carboxamide], 5.00 to 6.00.
As for `N#CN1Cc2cc(NC(=O)C3CN(Cc4ccccc4)CCO3)cc(-c3ccccc3)c2C1` (stereo not drawn) [Example 40, 4-benzyl-N-(2-cyano-7-phenylisoindolin-5-yl)morpholine-2-carboxamide], the pIC50 was 5.00 to 6.00.
Regarding `N#CN1Cc2cc(NC(=O)CCc3cccnc3)cc(-c3ccccc3)c2C1` [Example 41, N-(2-cyano-7-phenylisoindolin-5-yl)-3-(pyridin-3-yl)propanamide], the pIC50 is 5.00 to 6.00.
In the case of `N#CN1Cc2cc(NC(=O)C3CNC(=O)C3)cc(-c3ccccc3)c2C1` (stereo not drawn) [Example 42, N-(2-cyano-7-phenylisoindolin-5-yl)-5-oxopyrrolidine-3-carboxamide] it was over 6.00; in that of `CN1CCC(C(=O)Nc2cc3c(c(-c4ccccc4)c2)CN(C#N)C3)C1` (stereo not drawn) [Example 43, N-(2-cyano-7-phenyl-isoindolin-5-yl)-1-methylpyrrolidine-3-carboxamide], 4.00 to 4.52.
Regarding `CN1CC(C(=O)Nc2cc3c(c(-c4ccccc4)c2)CN(C#N)C3)CCC1=O` (stereo not drawn) [Example 44, N-(2-cyano-7-phenylisoindolin-5-yl)-1-methyl-6-oxopiperidine-3-carboxamide], the pIC50 is over 6.00.
For the compound `CC(=O)N1CCCC(C(=O)Nc2cc3c(c(-c4ccccc4)c2)CN(C#N)C3)C1` (stereo not drawn) [Example 45, 1-acetyl-N-(2-cyano-7-phenylisoindolin-5-yl)piperidine-3-carboxamide], the pIC50 was 5.00 to 6.00.
Regarding `CN(C)C(=O)CCC(=O)Nc1cc2c(c(-c3ccccc3)c1)CN(C#N)C2` [Example 46, N1-(2-cyano-7-phenylisoindolin-5-yl)-N4,N4-dimethylsuccinamide], the pIC50 is 5.00 to 6.00.
In the case of `CC(=O)N1CCC(C(=O)Nc2cc3c(c(-c4ccccc4)c2)CN(C#N)C3)CC1` [Example 47, 1-acetyl-N-(2-cyano-7-phenylisoindolin-5-yl)piperidine-4-carboxamide] it was over 6.00.
As for `CN1CCC(C(=O)Nc2cc3c(c(-c4ccccc4)c2)CN(C#N)C3)CC1` [Example 48, N-(2-cyano-7-phenylisoindolin-5-yl)-1-methylpiperidine-4-carboxamide], the figure is over 6.00.
In the case of `CN(C)CC(=O)Nc1cc2c(c(-c3ccccc3)c1)CN(C#N)C2` [Example 49] it was over 6.00; in that of `N#CN1Cc2cc(NC(=O)C3CCOCC3)cc(-c3ccccc3)c2C1` [Example 50, N-(2-cyano-7-phenylisoindolin-5-yl)tetrahydro-2H-pyran-4-carboxamide], over 6.00.
Turning to `N#CN1Cc2cc(NC(=O)C3CCS(=O)(=O)CC3)cc(-c3ccccc3)c2C1` [Example 51, N-(2-cyano-7-phenylisoindoin-5-yl)tetrahydro-2H-thiopyran-4-carboxamide 1,1-dioxide], the pIC50 is 5.00 to 6.00.
As for `CN1CC(C(=O)Nc2cc3c(c(-c4ccccc4)c2)CN(C#N)C3)CC1=O` (stereo not drawn) [Example 52, N-(2-cyano-7-phenylisoindolin-5-yl)-1-methyl-5-oxopyrrolidine-3-carboxamide], the figure is over 6.00.
In the case of `CN1CCOC(C(=O)Nc2cc3c(c(-c4ccccc4)c2)CN(C#N)C3)C1` (stereo not drawn) [Example 53, N-(2-cyano-7-phenylisoindolin-5-yl)-4-methylmorpholine-2-carboxamide], the pIC50 is over 6.00.
As to `CCN1CCOC(C(=O)Nc2cc3c(c(-c4ccccc4)c2)CN(C#N)C3)C1` (stereo not drawn) [Example 54, N-(2-cyano-7-phenylisoindolin-5-yl)-4-ethylmorpholine-2-carboxamide], the pIC50 is over 6.00.
In the case of `CC(C)N1CCOC(C(=O)Nc2cc3c(c(-c4ccccc4)c2)CN(C#N)C3)C1` (stereo not drawn) [Example 55, N-(2-cyano-7-phenylisoindolin-5-yl)-4-isopropylmorpholine-2-carboxamide], the negative logarithm of the IC50 (pIC50) was over 6.00.
As for `CN1CCCC(C(=O)Nc2cc3c(c(-c4ccccc4C(N)=O)c2)CN(C#N)C3)C1` (stereo not drawn) [Example 56, N-(7-(2-carbamoylphenyl)-2-cyanoisoindolin-5-yl)-1-methylpiperidine-3-carboxamide], the pIC50 was 5.00 to 6.00.
As for `CC(=O)Nc1cc2c(c(-c3ccccc3)c1)CN(C#N)C2` [Example 57], the figure is 5.00 to 6.00; as for `CC(=O)N(C)c1cc2c(c(-c3ccccc3)c1)CN(C#N)C2` [Example 58, N-(2-cyano-7-phenylisoindolin-5-yl)-N-methylacetamide], 5.00 to 6.00.
In the case of `CN1CCCC(C(=O)N(C)c2cc3c(c(-c4ccccc4)c2)CN(C#N)C3)C1` (stereo not drawn) [Example 59, N-(2-cyano-7-phenylisoindolin-5-yl)-N,1-dimethylpiperidine-3-carboxamide] it was 5.00 to 6.00; in that of `CN1CCN(C(=O)Nc2cc3c(c(-c4ccccc4)c2)CN(C#N)C3)CC1` [Example 60, N-(2-cyano-7-phenylisoindolin-5-yl)-4-methylpiperazine-1-carboxamide], over 6.00.
As for `CS(=O)(=O)Nc1cc2c(c(-c3ccccc3)c1)CN(C#N)C2` [Example 61, N-(2-cyano-7-phenylisoindolin-5-yl)methanesulfonamide], the figure is 5.00 to 6.00; as for `N#CN1Cc2cc(NC(=O)C3CCCNC3)cc(-c3ccccc3)c2C1` (stereo not drawn) [Example 62, N-(2-cyano-7-phenylisoindolin-5-yl)piperidine-3-carboxamide], over 6.00; as for `N#CN1Cc2cc(NC(=O)C3CCNCC3)cc(-c3ccccc3)c2C1` [Example 63, N-(2-cyano-7-phenylisoindolin-5-yl)piperidine-4-carboxamide], 5.00 to 6.00.
`CN1CCCC(CNc2cc3c(c(-c4ccccc4)c2)CN(C#N)C3)C1` (stereo not drawn) [Example 64, 6-(((1-methylpiperidin-3-yl)methyl)amino)-4-phenylisoindoline-2-carbonitrile]: the pIC50 was over 6.00.
In the case of `N#Cc1ccc(-c2cccc3c2CN(C#N)C3)c(Cl)c1` [Example 65, 4-(2-chloro-4-cyanophenyl)isoindoline-2-carbonitrile] it was 5.00 to 6.00; in that of `Cc1cc(C#N)ccc1-c1cccc2c1CN(C#N)C2` [Example 66, 4-(4-cyano-2-methylphenyl)isoindoline-2-carbonitrile], 5.00 to 6.00; in that of `Cc1cc(C#N)cc(C)c1-c1cccc2c1CN(C#N)C2` [Example 67, 4-(4-cyano-2,6-dimethylphenyl)isoindoline-2-carbonitrile], 5.00 to 6.00.
As for `N#CN1Cc2cccc(-c3cccc4c3C(=O)NC4)c2C1` [Example 68, 3-oxo-[4,4′-biisoindoline]-2′-carbonitrile], the pIC50 was 5.00 to 6.00.
As for `N#CN1Cc2cccc(-c3cccc4c3C(=O)NCC4)c2C1` [Example 69, 4-(1-oxo-1,2,3,4-tetrahydroisoquinolin-8-yl)isoindoline-2-carbonitrile], the figure is 5.00 to 6.00; as for `C[C@@H](O)c1ccccc1-c1cccc2c1CN(C#N)C2` [Example 70, (R)-4-(2-(1-hydroxyethyl)phenyl)isoindoline-2-carbonitrile], 5.00 to 6.00.
As for `C[C@H](O)c1ccccc1-c1cccc2c1CN(C#N)C2` [Example 71, (S)-4-(2-(1-hydroxyethyl)phenyl)isoindoline-2-carbonitrile], the figure is 5.00 to 6.00; as for `N#Cc1ccc(-c2cccc3c2CN(C#N)C3)c(C#N)c1` [Example 72, 4-(2-cyanoisoindolin-4-yl)isophthalonitrile], over 6.00; as for `N#CN1Cc2cccc(-c3cccc(C(=O)NCc4ccccc4)c3)c2C1` [Example 73, N-benzyl-3-(2-cyanoisoindolin-4-yl)benzamide], 5.00 to 6.00.
In the case of `CC(NC(=O)c1cccc(-c2cccc3c2CN(C#N)C3)c1)c1ccccc1` (stereo not drawn) [Example 74, 3-(2-cyanoisoindolin-4-yl)-N-(1-phenylethyl)benzamide], the pIC50 was 5.00 to 6.00.

One may read the pIC50 as the IC50 on a negative log10 scale, so that one unit is a factor of ten.
